# Source: patent US20030207856A1, “Medical devices and compositions for delivering anti-proliferatives to anatomical sites at risk for restenosis” (priority 2002, published 2003)
# System: Human coronary smooth muscles cells (HCASMC)
# Assay: Human coronary artery smooth muscle cell proliferation inhibition
# Assay type: cell-based
# Conditions: day four, both cell culture schemes, FIGS. 6 and 7
# Method: Inhibition of Human Coronary Artery Smooth Muscle Cells by Geldanamycin
# 1. Human coronary smooth muscles cells (HCASMC) were obtained from Clonetics, a division of Cambrex, Inc.
# 2. HCASMA basal media, supplied by Clonetics and supplemented with fetal bovine serum, insulin, hFGF-B (human fibroblast growth factor) hEGF (human epidermal growth factor).
# Human coronary smooth muscles cells (HCASMC) were seeded in 24 well polystyrene tissue culture plates at a density of 5×10^3 cells per well. Two different feeding and reading strategies were employed. Strategy 1: Cells were plated in cell culture media containing various concentrations of geldanamycin (see Table 1) and incubated at 37° C. for 48 hours. After the initial 48 hour incubation, the geldanamycin containing plating media was changed and the cells were fed with drug free media and incubated for an additional 48 hours and then read.
# Strategy 2: Cells were plated in cell culture media containing various concentrations of geldanamycin (see Table 1) and incubated at 37° C. for 48 hours. After the initial 48 hours incubation, the geldanamycin-containing plating media was changed and the cells were fed with geldanamycin-containing media and incubated for an additional 48 hours and then read. […]
# On day four cultures were analyzed to determine the proliferation inhibition effects of geldanamycin. […]
compound,measurement,setting,value
COC1=C2C[C@@H](C)C[C@H](OC)[C@H](O)[C@@H](C)/C=C(\C)[C@H](OC(N)=O)[C@@H](OC)/C=C\C=C(/C)C(=O)NC(=CC1=O)C2=O [geldanamycin],HCASMC inhibition (percent inhibition of proliferation),geldanamycin 0.9 nM,> 50%
same,HCASMC inhibition (percent inhibition of proliferation),geldanamycin 50 nM,~100%
